Source: the supplement of paper PMC7017272
± gives the standard deviation of the averaged measurements.

Columns and labels:
UT-SCC-24A = assay: drug sensitivity score (DSS); higher = more sensitive; settings: treatment time: 3 days
Procedure: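 HNSCC cell lines (500 cells/well, 384-well) were cultured on plastic, on top of (2D) or embedded (3D) in Matrigel or human leiomyoma matrix Myogel (500 ug/mL; Myogel 3D mixed with rat collagen I). Cells were treated for 3 days with 5 ten-fold concentrations of each drug, and viability was read by CellTiter-Glo. Suffixes _1/_2/_3 on drug names are replicates.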

UT-SCC-40 [1] = assay: relative IC50 (midpoint of the fitted curve; maximal inhibition may be below 50%); higher = less potent; settings: treatment time: 3 days
Outline: (§1)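 Viability of HPV-negative HNSCC cell lines was measured by CellTiter-Glo 2.0 luminescence. Cells were seeded at 500 cells/well in 384-well plates on plastic, on Matrigel- or Myogel-coated wells (500 µg/mL), or embedded in Matrigel or Myogel plus rat collagen I, then given compounds at five 10-fold concentrations for 3 days, with signals normalised to vehicle (0.1% DMSO) and cell-killing control wells. Fitting of percent-inhibition dose–response curves in the FIMM pipeline yielded IC50, maximal inhibition and drug sensitivity score.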

UT-SCC-81 [2] = assay: as above; settings: treatment time: 3 days
Outline: as §1

UT-SCC-24B [3] = assay: as above; settings: treatment time: 3 days
Outline: as §1

UT-SCC-28 [4] = assay: as above; settings: culture condition: plastic 2D (no matrix); treatment time: 3 days
Outline: as §1

UT-SCC-44 = assay: maximal % inhibition of viability relative to DMSO; higher = stronger effect; settings: treatment time: 3 days
Procedure: (§2)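 HNSCC cell lines (500 cells/well, 384-well) were cultured on plastic, on top of (2D) or embedded (3D) in Matrigel or human leiomyoma matrix Myogel (500 ug/mL; Myogel 3D mixed with rat collagen I). Cells were treated for 3 days with 5 ten-fold concentrations of each drug, and viability was read by CellTiter-Glo. Viability was normalised to DMSO and benzethonium chloride controls and fitted with the FIMM DSRT pipeline to give IC50 (nM), maximal % inhibition and DSS. Suffixes _1/_2/_3 are replicates. Only inhibition-mode (IC50) fits are kept.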

UT-SCC-8 = assay: as above; settings: treatment time: 3 days
Procedure: as §2

UT-SCC-42A = assay: as above; settings: treatment time: 3 days
Procedure: as §2

UT-SCC-40 [5] = assay: as above; settings: treatment time: 3 days
Procedure: as §2

UT-SCC-81 [6] = assay: as above; settings: treatment time: 3 days
Procedure: as §2

UT-SCC-24B [7] = assay: as above; settings: treatment time: 3 days
Procedure: as §2

UT-SCC-73 = assay: as above; settings: treatment time: 3 days
Procedure: as §2

UT-SCC-106A = assay: as above; settings: treatment time: 3 days
Procedure: as §2

UT-SCC-14 = assay: as above; settings: treatment time: 3 days
Procedure: as §2

UT-SCC-28 [8] = assay: as above; settings: treatment time: 3 days
Procedure: as §2

UT-SCC-42B = assay: as above; settings: treatment time: 3 days
Procedure: as §2

[9] = culture condition: embedded in Matrigel
[10] = culture condition: embedded in Myogel + collagen I
[11] = culture condition: on top of Matrigel
[12] = culture condition: on top of Myogel
[13] = culture condition: plastic 2D (no matrix)

## CC(=O)Nc1cccc(-n2c(=O)n(C3CC3)c(=O)c3c(Nc4ccc(I)cc4F)n(C)c(=O)c(C)c32)c1 [Trametinib]
UT-SCC-24A; [9]
  drug sensitivity score: 20.2 ± 1.9 DSS
UT-SCC-24A; [10]
  drug sensitivity score: 8.77 ± 2.7 DSS
UT-SCC-24A; [11]
  drug sensitivity score: 18.9 ± 1.5 DSS
UT-SCC-24A; [12]
  drug sensitivity score: 3.8 ± 1.6 DSS
UT-SCC-24A; [13]
  drug sensitivity score: 18.2 ± 2.1 DSS
UT-SCC-40 [1]; [11]
  relative IC50: 3.55 nM
UT-SCC-40 [1]; [12]
  relative IC50: 4.8 nM
UT-SCC-81 [2]; [10]
  relative IC50: 6.59 nM
UT-SCC-81 [2]; [13]
  relative IC50: 7.02 nM
UT-SCC-24B [3]; [9]
  relative IC50: 9.83 nM
UT-SCC-24B [3]; [10]
  relative IC50: 9.92 nM
UT-SCC-24B [3]; [11]
  relative IC50: 11.6 nM
UT-SCC-24B [3]; [12]
  relative IC50: 22.7 nM
UT-SCC-24B [3]; [13]
  relative IC50: 7.62 nM
UT-SCC-28 [4]
  relative IC50: 1.42 nM
UT-SCC-44; [9]
  maximal % inhibition of viability: 66.8 ± 1.4%
UT-SCC-44; [10]
  maximal % inhibition of viability: 23 ± 2.4%
UT-SCC-44; [11]
  maximal % inhibition of viability: 46.1 ± 8.3%
UT-SCC-44; [12]
  maximal % inhibition of viability: 28.4 ± 11%
UT-SCC-44; [13]
  maximal % inhibition of viability: 41.1 ± 9%
UT-SCC-8; [9]
  maximal % inhibition of viability: 61.3 ± 18%
UT-SCC-8; [10]
  maximal % inhibition of viability: 24.5 ± 29%
UT-SCC-8; [11]
  maximal % inhibition of viability: 47.3 ± 24%
UT-SCC-8; [12]
  maximal % inhibition of viability: 41.1 ± 19%
UT-SCC-8; [13]
  maximal % inhibition of viability: 43 ± 23%
UT-SCC-42A; [9]
  maximal % inhibition of viability: 45.4 ± 0.67%
UT-SCC-42A; [10]
  maximal % inhibition of viability: 22.1 ± 5.4%
UT-SCC-42A; [11]
  maximal % inhibition of viability: 50.3 ± 4.1%
UT-SCC-42A; [12]
  maximal % inhibition of viability: 29.4 ± 6.9%
UT-SCC-42A; [13]
  maximal % inhibition of viability: 34.7 ± 3.8%
UT-SCC-40 [5]; [9]
  maximal % inhibition of viability: 78.07 ± 0.4%
UT-SCC-40 [5]; [10]
  maximal % inhibition of viability: 61.7 ± 4.8%
UT-SCC-40 [5]; [11]
  maximal % inhibition of viability: 71.7 ± 2.8%
UT-SCC-40 [5]; [12]
  maximal % inhibition of viability: 51.9 ± 1.5%
UT-SCC-40 [5]; [13]
  maximal % inhibition of viability: 52.2 ± 7.5%
UT-SCC-81 [6]; [9]
  maximal % inhibition of viability: 84.9 ± 2.4%
UT-SCC-81 [6]; [10]
  maximal % inhibition of viability: 24.5 ± 2.6%
UT-SCC-81 [6]; [11]
  maximal % inhibition of viability: 78.6 ± 2.9%
UT-SCC-81 [6]; [12]
  maximal % inhibition of viability: 27.8 ± 11%
UT-SCC-81 [6]; [13]
  maximal % inhibition of viability: 44.1 ± 8.9%
UT-SCC-24B [7]; [9]
  maximal % inhibition of viability: 67.1 ± 3.1%
UT-SCC-24B [7]; [10]
  maximal % inhibition of viability: 66.5 ± 3.8%
UT-SCC-24B [7]; [11]
  maximal % inhibition of viability: 67.53 ± 0.29%
UT-SCC-24B [7]; [12]
  maximal % inhibition of viability: 59.1 ± 4.8%
UT-SCC-24B [7]; [13]
  maximal % inhibition of viability: 78.8 ± 1.7%
UT-SCC-73; [9]
  maximal % inhibition of viability: 81.2 ± 1.7%
UT-SCC-73; [10]
  maximal % inhibition of viability: 62.8 ± 12%
UT-SCC-73; [11]
  maximal % inhibition of viability: 76.9 ± 0.9%
UT-SCC-73; [12]
  maximal % inhibition of viability: 63.3 ± 3.6%
UT-SCC-73; [13]
  maximal % inhibition of viability: 70.53 ± 0.25%
UT-SCC-106A; [9]
  maximal % inhibition of viability: 51.5 ± 3.2%
UT-SCC-106A; [10]
  maximal % inhibition of viability: 15.1 ± 2.8%
UT-SCC-106A; [11]
  maximal % inhibition of viability: 61.8 ± 3.4%
UT-SCC-106A; [12]
  maximal % inhibition of viability: 23.2 ± 8.1%
UT-SCC-106A; [13]
  maximal % inhibition of viability: 63.5 ± 1.5%
UT-SCC-14; [9]
  maximal % inhibition of viability: 43.2 ± 5.3%
UT-SCC-14; [10]
  maximal % inhibition of viability: 31 ± 10%
UT-SCC-14; [11]
  maximal % inhibition of viability: 37.1 ± 8.6%
UT-SCC-14; [12]
  maximal % inhibition of viability: 22.9 ± 3%
UT-SCC-14; [13]
  maximal % inhibition of viability: 24 ± 8.8%
UT-SCC-28 [8]; [9]
  maximal % inhibition of viability: 36.7 ± 7.8%
UT-SCC-28 [8]; [10]
  maximal % inhibition of viability: 29.7 ± 26%
UT-SCC-28 [8]; [11]
  maximal % inhibition of viability: 35.1 ± 7.7%
UT-SCC-28 [8]; [13]
  maximal % inhibition of viability: 21.1 ± 4.4%
UT-SCC-42B; [9]
  maximal % inhibition of viability: 67.8 ± 4.4%
UT-SCC-42B; [11]
  maximal % inhibition of viability: 52.2 ± 7.1%
UT-SCC-42B; [12]
  maximal % inhibition of viability: 20.8 ± 7.8%
UT-SCC-42B; [13]
  maximal % inhibition of viability: 28.8 ± 8%
